Test [1] concerns THP-1 cells (TNFα secretion on human IgG-coated plate). Briefly: TNFα generation assay. The test is classed as cell-based. To be noted: IFN-γ differentiated THP-1 cells, 7 hours, AlphaLISA, read-out: IC50 of TNFα generation inhibitory activity. In a few lines: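 Secreted TNFα was measured by AlphaLISA after 7 h of culture on human IgG-coated wells (coating at 10 μg/ml), with 5×10^4 cells/well. Before plating, the cells had been treated with compound for 30 min at room temperature. The cells were macrophage-like THP-1, produced by a 2-day exposure to 10 ng/ml IFN-γ.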
A general note: Bead proximity is the source of the signal in Alpha formats.

Test [2] deals with THP-1 cells (phagocytosis of opsonized Escherichia coli). Kind of test: Antibody-dependent phagocytosis assay. The test is classed as cell-based. The note with it: Homo sapiens; IFNγ differentiated THP-1 cells, opsonized pHrodo Escherichia coli, 3 hours; read-out: IC50 upon phagocytosis inhibition. The method, then: THP-1 cells (2×10^5 cells/ml), which were human monocytoid cells, were cultured in the presence of 10 ng/ml IFNγ for 2 days, and they were induced to differentiate into macrophage-like cells. The differentiation-induced THP-1 cells were recovered, and the cells (5×10^4 cells/well) were then allowed to react with a predetermined concentration of test compound at room temperature for 30 minutes. Thereafter, Escherichia coli (Life Technologies) labeled with a pH-sensitive dye (pHrodo) was subjected to opsonization using an anti-Escherichia coli antibody (Life Technologies). Then, the resultant was added to the THP-1 cells obtained above, followed by incubation at 37° C. for 3 hours. Opsonized Escherichia coli and cell-permeable fluorescent dye (Calcein AM) were simultaneously added thereto, followed by quantitative determination of phagocytosis of opsonized Escherichia coli in viable cells using an IN Cell Analyzer.

In test [3] the target is T1, glutathione S-transferase (GST)-linked full-length human Syk protein (Homo sapiens, UniProt P43405).
T1 construct: glutathione S-transferase (GST)-linked full-length human Syk protein; purchased Carna Biosciences; host or cells: Baculovirus expression system
Briefly: Syk enzyme assay. Type of test: biochemical. To be noted: 0.83 nM Syk, time-resolved fluorescence; read-out: IC50 of Syk-inhibitory activity. An outline of the steps:
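Phosphotyrosine on a biotin-peptide substrate (0.5 μM) was read by time-resolved fluorescence at 615 and 665 nm with Eu-anti-pTyr antibody and APC-streptavidin after 1 h EDTA stop.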

In the case of `COc1nn(CC(F)F)c2ccc(Nc3nc(N[C@H](C4CC4)[C@H](C)N)c(F)cc3C(N)=O)cc12` [Example 2-74, 6-(((1R,2S)-2-amino-1-cyclopropylpropyl)amino)-2-((1-(2,2-difluoroethyl)-3-methoxy-1H-indazol-5-yl)amino)-5-fluoronicotinamide], the results for the IC50 in test [1], in test [2] and in test [3] were 0.065 to 0.13 µM, less than 1 µM and less than 0.01 µM, respectively.

With `Cc1ncc(Nc2nc(N[C@H](CC(C)C)[C@H](C)N)c(F)cc2C(N)=O)cc1F` [Example 2-224, 6-(((2S,3R)-2-amino-5-methylhexan-3-yl)amino)-5-fluoro-2-((5-fluoro-6-methylpyridin-3-yl)amino)nicotinamide], the IC50 in test [1] was 0.13 to 0.2 µM; in test [2], 1 to 3 µM; in test [3], less than 0.01 µM.

For the molecule `COCCn1ncc2c(Nc3nc(N[C@H](C4CC4)[C@H](C)N)c(F)cc3C(N)=O)cccc21` [Example 2-306, 6-(((1R,2S)-2-amino-1-cyclopropylpropyl)amino)-5-fluoro-2-((1-(2-methoxyethyl)-1H-indazol-4-yl)amino)nicotinamide], the IC50 in test [1] is 0.13 to 0.2 µM; in test [2] it was 1 to 3 µM; in test [3], less than 0.01 µM.

As to `CCn1nc(OC)c2cc(Nc3nc(N[C@H](CC4CC4)[C@H](C)N)c(F)cc3C(N)=O)ccc21` [Example 2-50, 6-(((2R,3S)-3-amino-1-cyclopropylbutan-2-yl)amino)-2-((1-ethyl-3-methoxy-1H-indazol-5-yl)amino)-5-fluoronicotinamide], the IC50 in test [2] is less than 1 µM; in test [3], less than 0.01 µM.

On to `NC(=O)c1cc(F)c(N[C@@H]2CCCC[C@@H]2N)nc1Nc1cncc2c1cnn2CC(F)F` [Example 2-393, 6-(((1R,2S)-2-aminocyclohexyl)amino)-2-((1-(2,2-difluoroethyl)-1H-pyrazolo[3,4-c]pyridin-4-yl)amino)-5-fluoronicotinamide], for which the IC50 is 1 to 3 µM in test [2] and less than 0.01 µM in test [3].

In the case of `CCC[C@@H](Nc1nc(Nc2cccc3c2cnn3CCOC)c(C(N)=O)cc1F)[C@H](C)N` [Example 2-305, 6-(((2S,3R)-2-aminohexan-3-yl)amino)-5-fluoro-2-((1-(2-methoxyethyl)-1H-indazol-4-yl)amino)nicotinamide], the figures for the IC50 in test [2] and in test [3] were 1 to 3 µM and less than 0.01 µM, respectively.

With `CN(C)c1c2cc(Nc3nc(N[C@@H]4CCCC[C@@H]4N)c(F)cc3C(N)=O)ccc2nn1C` [Example 2-13, 6-(((1R,2S)-2-aminocyclohexyl)amino)-2-((3-(dimethylamino)-2-methyl-2H-indazol-5-yl)amino)-5-fluoronicotinamide], the IC50 was less than 1 µM in test [2] and less than 0.01 µM in test [3].

For `CCCC[C@@H](Nc1nc(Nc2cnc3c(c2)c(N(C)C)nn3C)c(C(N)=O)cc1F)[C@H](C)N` [Example 2-291, 6-(((2S,3R)-2-aminoheptan-3-yl)amino)-2-((3-(dimethylamino)-1-methyl-1H-pyrazolo[3,4-b]pyridin-5-yl)amino)-5-fluoronicotinamide], the IC50 in test [2] lay in the range of 1 to 3 µM; in test [3], 0.01 to 0.05 µM.

For `Cc1ncc(Nc2nc(N[C@H](c3ccccc3)[C@H](C)N)c(F)cc2C(N)=O)cc1-n1nccn1` [Example 2-313, 6-(((1R,2S)-2-amino-1-phenylpropyl)amino)-5-fluoro-2-((6-methyl-5-(2H-1,2,3-triazol-2-yl)pyridin-3-yl)amino)nicotinamide], the IC50 in test [2] was 3 to 6 µM; in test [3] it was less than 0.01 µM.

Regarding `COC[C@@H](Nc1nc(Nc2cnc(C)c(-n3nccn3)c2)c(C(N)=O)cc1F)[C@H](C)N` [Example 2-197, 6-(((2S,3S)-3-amino-1-methoxybutan-2-yl)amino)-5-fluoro-2-((6-methyl-5-(2H-1,2,3-triazol-2-yl)pyridin-3-yl)amino)nicotinamide], the values for the IC50 in test [2] and in test [3] were 3 to 6 µM and 0.01 to 0.05 µM, respectively.

Turning to `COCCOc1cc(Nc2nc(N[C@H](Cc3ccccc3)[C@H](C)N)c(F)cc2C(N)=O)ccn1` [Example 2-427, 6-(((2R,3S)-3-amino-1-phenylbutan-2-yl)amino)-5-fluoro-2-((2-(2-methoxyethoxy)pyridin-4-yl)amino)nicotinamide], the IC50 in test [2] lay within 1 to 3 µM; in test [3], 0.01 to 0.05 µM.

For the molecule `NC(=O)c1cc(F)c(N[C@@H]2CCOC[C@@H]2N)nc1Nc1cncc2c1cnn2CC(F)F` [Example 2-394, 6-(((3R,4R)-3-aminotetrahydro-2H-pyran-4-yl)amino)-2-((1-(2,2-difluoroethyl)-1H-pyrazolo[3,4-c]pyridin-4-yl)amino)-5-fluoronicotinamide], the IC50 in test [2] was 3 to 6 µM; in test [3] it was less than 0.01 µM.

Take `CC(C)C[C@@H](Nc1nc(Nc2cnc3c(c2)c(N(C)C)nn3C)c(C(N)=O)cc1F)[C@H](C)N` [Example 2-292, 6-(((2S,3R)-2-amino-5-methylhexan-3-yl)amino)-2-((3-(dimethylamino)-1-methyl-1H-pyrazolo[3,4-b]pyridin-5-yl)amino)-5-fluoronicotinamide]: the IC50 was 1 to 3 µM in test [2] and less than 0.01 µM in test [3].

For the molecule `CC[C@@H](Nc1nc(Nc2cncc3c2cnn3CC)c(C(N)=O)cc1F)[C@H](C)N` [Example 2-318, 6-(((2S,3R)-2-aminopentan-3-yl)amino)-2-((1-ethyl-1H-pyrazolo[3,4-c]pyridin-4-yl)amino)-5-fluoronicotinamide], the IC50 in test [2] is 1 to 3 µM; in test [3], less than 0.01 µM.

`CCOC[C@@H](Nc1nc(Nc2cncc3c2cnn3CC)c(C(N)=O)cc1F)[C@H](C)N` [Example 2-324, 6-(((2S,3S)-3-amino-1-ethoxybutan-2-yl)amino)-2-((1-ethyl-1H-pyrazolo[3,4-c]pyridin-4-yl)amino)-5-fluoronicotinamide]: the IC50 in test [2] is less than 1 µM; in test [3], 0.01 to 0.05 µM.

Take `COCCOc1ncc(Nc2nc(N[C@H](C3CCC3)[C@H](C)N)c(F)cc2C(N)=O)cc1F` [Example 2-116, 6-(((1R,2S)-2-amino-1-cyclobutylpropyl)amino)-5-fluoro-2-((5-fluoro-6-(2-methoxyethoxy)pyridin-3-yl)amino)nicotinamide]: the IC50 in test [2] fell in the range of 1 to 3 µM; in test [3], 0.01 to 0.05 µM.

Take `NC[C@@H](Cc1ccccc1)Nc1nc(Nc2cnc(N3CCOCC3)c(F)c2)c(C(N)=O)cc1F` [Example 2-365, (R)-6-((1-amino-3-phenylpropan-2-yl)amino)-5-fluoro-2-((5-fluoro-6-morpholinopyridin-3-yl)amino)nicotinamide]: the IC50 was less than 1 µM in test [2] and 0.05 to 0.1 µM in test [3].

Take `COc1ncc(Nc2nc(N[C@H](C3CCC3)[C@H](C)N)c(F)cc2C(N)=O)cc1-n1ccnn1` [Example 2-166, 6-(((1R,2S)-2-amino-1-cyclobutylpropyl)amino)-5-fluoro-2-((6-methoxy-5-(1H-1,2,3-triazol-1-yl)pyridin-3-yl)amino)nicotinamide]: the IC50 in test [2] lay within 1 to 3 µM; in test [3], 0.01 to 0.05 µM.

`COCCn1nc(OC(F)F)c2cc(Nc3nc(N[C@H](COC)[C@H](C)N)c(F)cc3C(N)=O)ccc21` [Example 2-178, 6-(((2S,3S)-3-amino-1-methoxybutan-2-yl)amino)-2-((3-(difluoromethoxy)-1-(2-methoxyethyl)-1H-indazol-5-yl)amino)-5-fluoronicotinamide]: the IC50 is 1 to 3 µM in test [2] and less than 0.01 µM in test [3].

As for `CC[C@H](N)[C@@H](C)Nc1nc(Nc2cc(F)c3c(c2)c(N(C)C)nn3C)c(C(N)=O)cc1F` [Example 2-194, 6-(((2R,3S)-3-aminopentan-2-yl)amino)-2-((3-(dimethylamino)-7-fluoro-1-methyl-1H-indazol-5-yl)amino)-5-fluoronicotinamide], the IC50 in test [2] is 1 to 3 µM; in test [3], less than 0.01 µM.

Regarding `CC[C@H](N)[C@@H](CC)Nc1nc(Nc2ccc3c(c2)c(OC)nn3C)c(C(N)=O)cc1F` [Example 2-85, 6-(((3R,4S)-4-aminohexan-3-yl)amino)-5-fluoro-2-((3-methoxy-1-methyl-1H-indazol-5-yl)amino)nicotinamide], the IC50 was less than 1 µM in test [2] and 0.01 to 0.05 µM in test [3].

As for `Cc1ncc(Nc2nc(N[C@@H]([C@H](C)N)[C@H]3CC3(C)C)c(F)cc2C(N)=O)cc1-n1nccn1` [Example 2-380, 6-(((1R,2S)-2-amino-1-((S)-2,2-dimethylcyclopropyl)propyl)amino)-5-fluoro-2-((6-methyl-5-(2H-1,2,3-triazol-2-yl)pyridin-3-yl)amino)nicotinamide], the IC50 was 1 to 3 µM in test [2] and less than 0.01 µM in test [3].

Take `CCn1ncc2c(Nc3nc(N[C@@H](CN)CC(C)C)c(F)cc3C(N)=O)cncc21` [Example 2-405, (R)-6-((1-amino-4-methylpentan-2-yl)amino)-2-((1-ethyl-1H-pyrazolo[3,4-c]pyridin-4-yl)amino)-5-fluoronicotinamide]: the IC50 in test [2] is 1 to 3 µM; in test [3] it was less than 0.01 µM.
